Data as given in the NIST ThermoML archive (doi:10.1016/j.tca.2015.03.003).

Test: molar heat capacity at constant pressure; xn = mol fraction of the nth substance listed
Settings: 100 kPa, Small sample (50 mg) DSC

[Cl-].[K+] [potassium chloride] + [Cl-].[Na+]
Settings | molar heat capacity at constant pressure [J/K/mol]
298.15 K, Crystal of unknown type, x1 = 0.1 | 48.78
298.15 K, Crystal of unknown type, x1 = 0.2 | 51.33
298.15 K, Crystal of unknown type, x1 = 0.3 | 49.46
298.15 K, Crystal of unknown type, x1 = 0.4 | 50.77
298.15 K, Crystal of unknown type, x1 = 0.5 | 51.13
298.15 K, Crystal of unknown type, x1 = 0.6 | 48.93
298.15 K, Crystal of unknown type, x1 = 0.7 | 50.73
298.15 K, Crystal of unknown type, x1 = 0.75 | 50.05
298.15 K, Crystal of unknown type, x1 = 0.8 | 50.46
300 K, Crystal of unknown type, x1 = 0.1 | 48.81
300 K, Crystal of unknown type, x1 = 0.2 | 51.36
300 K, Crystal of unknown type, x1 = 0.3 | 49.49
300 K, Crystal of unknown type, x1 = 0.4 | 50.8
300 K, Crystal of unknown type, x1 = 0.5 | 51.16
300 K, Crystal of unknown type, x1 = 0.6 | 48.96
300 K, Crystal of unknown type, x1 = 0.7 | 50.76
300 K, Crystal of unknown type, x1 = 0.75 | 50.07
300 K, Crystal of unknown type, x1 = 0.8 | 50.47
350 K, Crystal of unknown type, x1 = 0.1 | 49.61
350 K, Crystal of unknown type, x1 = 0.2 | 52.11
350 K, Crystal of unknown type, x1 = 0.3 | 50.24
350 K, Crystal of unknown type, x1 = 0.4 | 51.4
350 K, Crystal of unknown type, x1 = 0.5 | 51.77
350 K, Crystal of unknown type, x1 = 0.6 | 49.81
350 K, Crystal of unknown type, x1 = 0.7 | 51.51
350 K, Crystal of unknown type, x1 = 0.75 | 50.42
350 K, Crystal of unknown type, x1 = 0.8 | 50.87
400 K, Crystal of unknown type, x1 = 0.1 | 50.41
400 K, Crystal of unknown type, x1 = 0.2 | 52.86
400 K, Crystal of unknown type, x1 = 0.3 | 50.99
400 K, Crystal of unknown type, x1 = 0.4 | 52
400 K, Crystal of unknown type, x1 = 0.5 | 52.39
400 K, Crystal of unknown type, x1 = 0.6 | 50.66
400 K, Crystal of unknown type, x1 = 0.7 | 52.26
400 K, Crystal of unknown type, x1 = 0.75 | 50.77
400 K, Crystal of unknown type, x1 = 0.8 | 51.27
450 K, Crystal of unknown type, x1 = 0.1 | 51.21
450 K, Crystal of unknown type, x1 = 0.2 | 53.61
450 K, Crystal of unknown type, x1 = 0.3 | 51.74
450 K, Crystal of unknown type, x1 = 0.4 | 52.6
450 K, Crystal of unknown type, x1 = 0.5 | 53.01
450 K, Crystal of unknown type, x1 = 0.6 | 51.51
450 K, Crystal of unknown type, x1 = 0.7 | 53.01
450 K, Crystal of unknown type, x1 = 0.75 | 51.12
450 K, Crystal of unknown type, x1 = 0.8 | 51.67
470 K, Crystal of unknown type, x1 = 0.1 | 51.53
470 K, Crystal of unknown type, x1 = 0.2 | 53.91
470 K, Crystal of unknown type, x1 = 0.3 | 52.04
470 K, Crystal of unknown type, x1 = 0.4 | 52.84
470 K, Crystal of unknown type, x1 = 0.5 | 53.25
470 K, Crystal of unknown type, x1 = 0.6 | 51.85
470 K, Crystal of unknown type, x1 = 0.7 | 53.31
470 K, Crystal of unknown type, x1 = 0.75 | 51.26
470 K, Crystal of unknown type, x1 = 0.8 | 51.83
500 K, Crystal of unknown type, x1 = 0.1 | 52.01
500 K, Crystal of unknown type, x1 = 0.2 | 54.36
500 K, Crystal of unknown type, x1 = 0.3 | 52.49
500 K, Crystal of unknown type, x1 = 0.4 | 53.2
500 K, Crystal of unknown type, x1 = 0.5 | 53.63
500 K, Crystal of unknown type, x1 = 0.6 | 52.36
500 K, Crystal of unknown type, x1 = 0.7 | 53.76
500 K, Crystal of unknown type, x1 = 0.75 | 51.47
500 K, Crystal of unknown type, x1 = 0.8 | 52.07
550 K, Crystal of unknown type, x1 = 0.1 | 52.81
550 K, Crystal of unknown type, x1 = 0.2 | 55.11
550 K, Crystal of unknown type, x1 = 0.3 | 53.24
550 K, Crystal of unknown type, x1 = 0.4 | 53.8
550 K, Crystal of unknown type, x1 = 0.5 | 54.24
550 K, Crystal of unknown type, x1 = 0.6 | 53.21
550 K, Crystal of unknown type, x1 = 0.7 | 54.51
550 K, Crystal of unknown type, x1 = 0.75 | 51.82
550 K, Crystal of unknown type, x1 = 0.8 | 52.47
600 K, Crystal of unknown type, x1 = 0.1 | 53.61
600 K, Crystal of unknown type, x1 = 0.2 | 55.86
600 K, Crystal of unknown type, x1 = 0.3 | 53.99
600 K, Crystal of unknown type, x1 = 0.4 | 54.4
600 K, Crystal of unknown type, x1 = 0.5 | 54.86
600 K, Crystal of unknown type, x1 = 0.6 | 54.06
600 K, Crystal of unknown type, x1 = 0.7 | 55.26
600 K, Crystal of unknown type, x1 = 0.75 | 52.17
600 K, Crystal of unknown type, x1 = 0.8 | 52.87
635 K, Crystal of unknown type, x1 = 0.8 | 53.15
635 K, Crystal, x1 = 0.8 | 52.52
650 K, Crystal of unknown type, x1 = 0.1 | 54.41
650 K, Crystal of unknown type, x1 = 0.2 | 56.61
650 K, Crystal of unknown type, x1 = 0.3 | 54.74
650 K, Crystal of unknown type, x1 = 0.4 | 55
650 K, Crystal of unknown type, x1 = 0.5 | 55.48
650 K, Crystal of unknown type, x1 = 0.6 | 54.91
650 K, Crystal of unknown type, x1 = 0.7 | 56.01
650 K, Crystal of unknown type, x1 = 0.75 | 52.52
650 K, Crystal, x1 = 0.8 | 52.97
683 K, Crystal of unknown type, x1 = 0.75 | 52.75
683 K, Crystal, x1 = 0.75 | 55.25
687 K, Crystal of unknown type, x1 = 0.7 | 56.56
687 K, Crystal, x1 = 0.7 | 53.53
700 K, Crystal of unknown type, x1 = 0.1 | 55.21
700 K, Crystal of unknown type, x1 = 0.2 | 57.36
700 K, Crystal of unknown type, x1 = 0.3 | 55.49
700 K, Crystal of unknown type, x1 = 0.4 | 55.6
700 K, Crystal of unknown type, x1 = 0.5 | 56.1
700 K, Crystal of unknown type, x1 = 0.6 | 55.76
700 K, Crystal, x1 = 0.7 | 54.17
700 K, Crystal, x1 = 0.75 | 56.4
700 K, Crystal, x1 = 0.8 | 54.47
733 K, Crystal of unknown type, x1 = 0.6 | 56.32
733 K, Crystal, x1 = 0.6 | 56.77
739 K, Crystal of unknown type, x1 = 0.1 | 55.83
739 K, Crystal, x1 = 0.1 | 55.59
750 K, Crystal of unknown type, x1 = 0.2 | 58.11
750 K, Crystal of unknown type, x1 = 0.3 | 56.24
750 K, Crystal of unknown type, x1 = 0.4 | 56.2
750 K, Crystal of unknown type, x1 = 0.5 | 56.71
750 K, Crystal, x1 = 0.1 | 55.9
750 K, Crystal, x1 = 0.6 | 57.39
750 K, Crystal, x1 = 0.7 | 56.62
750 K, Crystal, x1 = 0.75 | 59.8
750 K, Crystal, x1 = 0.8 | 55.97
753 K, Crystal of unknown type, x1 = 0.2 | 58.15
753 K, Crystal, x1 = 0.2 | 59.47
757 K, Crystal of unknown type, x1 = 0.5 | 56.8
757 K, Crystal, x1 = 0.5 | 57.77
769 K, Crystal of unknown type, x1 = 0.4 | 56.42
769 K, Crystal, x1 = 0.4 | 56.84
771 K, Crystal of unknown type, x1 = 0.3 | 56.56
771 K, Crystal, x1 = 0.3 | 57.44
800 K, Crystal, x1 = 0.1 | 57.3
800 K, Crystal, x1 = 0.2 | 61.35
800 K, Crystal, x1 = 0.3 | 58.49
800 K, Crystal, x1 = 0.4 | 58.24
800 K, Crystal, x1 = 0.5 | 59.38
800 K, Crystal, x1 = 0.6 | 59.19
800 K, Crystal, x1 = 0.7 | 59.07
800 K, Crystal, x1 = 0.75 | 63.2
800 K, Crystal, x1 = 0.8 | 57.47
850 K, Crystal, x1 = 0.1 | 58.7
850 K, Crystal, x1 = 0.2 | 63.35
850 K, Crystal, x1 = 0.3 | 60.29
850 K, Crystal, x1 = 0.4 | 60.49
850 K, Crystal, x1 = 0.5 | 61.26
850 K, Crystal, x1 = 0.6 | 60.99
850 K, Crystal, x1 = 0.7 | 61.52
850 K, Crystal, x1 = 0.75 | 66.6
850 K, Crystal, x1 = 0.8 | 58.97
900 K, Crystal, x1 = 0.1 | 60.1
900 K, Crystal, x1 = 0.2 | 65.35
900 K, Crystal, x1 = 0.3 | 62.09
900 K, Crystal, x1 = 0.4 | 62.74
900 K, Crystal, x1 = 0.5 | 63.13
900 K, Crystal, x1 = 0.6 | 62.79
900 K, Crystal, x1 = 0.7 | 63.97
900 K, Crystal, x1 = 0.75 | 70
900 K, Crystal, x1 = 0.8 | 60.47
930 K, Crystal, x1 = 0.5 | 64.25
930 K, Liquid, x1 = 0.5 | 81.03
950 K, Liquid, x1 = 0.5 | 82.5
1000 K, Liquid, x1 = 0.5 | 86.19
1050 K, Liquid, x1 = 0.5 | 89.88
1100 K, Liquid, x1 = 0.5 | 93.56
